The values that follow come from US10590129B2 (Incozen Therapeutics Pvt. Ltd., priority 2010, dated 2020).

A value given as a limit tells only on which side of the number the result lay.

The subject of one data set is MKN-45 cells. As to the kind of experiment: Inhibition of MKN-45 proliferation (MTT). It is filed as cell-based, human. To be noted: Homo sapiens, MKN-45, MKN-45 proliferation. In a few lines:
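High-Met human gastric adenocarcinoma MKN-45 cells plated in complete growth medium, compounds added next day and viability read 3 days later by MTT dye reduction.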

As for `OCCn1cc(-c2ccc3ncn(Cc4ccc5ncccc5c4)c3n2)cn1` [Ex 150, 2-(4-(3-(Quinolin-6-ylmethyl)-3H-imidazo[4,5-b]pyridin-5-yl)-1H-pyrazol-1-yl)ethanol], the melting point lay within 160 to 163 °C. Further, the inhibition at 1 µM in the data set on MKN-45 cells was below 25%.

`OCCNc1ccc2nnn(Cc3ccc4ncccc4c3)c2n1` [Ex 151, 2-(3-(Quinolin-6-ylmethyl)-3H-[1,2,3]triazolo[4,5-b]pyridin-5-ylamino)ethanol] showed a melting point of 184 to 186 °C. For the same molecule, the inhibition at 1 µM in the data set on MKN-45 cells fell in the range of 50 to 75%.

Molecule `c1cnc2ccc(Cn3nnc4ccc(-n5ccnc5)nc43)cc2c1` [Ex 152, 6-((5-(1H-Imidazol-1-yl)-3H-[1,2,3]triazolo[4,5-b]pyridin-3-yl)methyl)quinoline] displayed a melting point of 227 to 230 °C. In the data set on MKN-45 cells, this molecule came in with a GI50 of 150 to 500 nM.

As to `c1cnc2ccc(Cn3nnc4ccc(-c5cnn(C6CCNCC6)c5)nc43)cc2c1` [Ex 157, 6-((5-(1-(Piperidin-4-yl)-1H-pyrazol-4-yl)-3H-[1,2,3]triazolo[4,5-b]pyridin-3-yl)methyl)quinoline], the melting point was in the range of 188 to 191 °C. Further, the GI50 with MKN-45 cells is below 1000 nM.

With `Cl.Fc1ccc(F)c(Cn2nnc3ccc(-c4cnn(C5CCNCC5)c4)nc32)c1Cl` [Ex 167, 3-(2-Chloro-3,6-difluorobenzyl)-5-(1-(piperidin-4-yl)-1H-pyrazol-4-yl)-3H-[1,2,3]triazolo[4,5-b]pyridine hydrochloride], the melting point lay in the range of 85 to 87 °C. The inhibition at 1 µM with MKN-45 cells was 25 to 50%.

Regarding `Nc1ncc(-c2ccc3nnn(Cc4ccc5ncccc5c4)c3n2)cn1` [Ex 180, 5-(3-(Quinolin-6-ylmethyl)-3H-[1,2,3]triazolo[4,5-b]pyridin-5-yl)pyrimidin-2-amine], the melting point was in the range of 244 to 246 °C. In the data set on MKN-45 cells, this molecule gave an inhibition at 0.1 µM below 25% and an inhibition at 1 µM of 25 to 50%.

`O=Cc1cc(-c2ccc3nnn(Cc4ccc5ncccc5c4)c3n2)cs1` [Ex 182, 4-(3-(Quinolin-6-ylmethyl)-3H-[1,2,3]triazolo[4,5-b]pyridin-5-yl)thiophene-2-carbaldehyde] had a melting point of 195 to 197 °C. Also, in the data set on MKN-45 cells, the inhibition at 0.1 µM is below 25% and the inhibition at 1 µM fell in the range of 25 to 50%.

The molecule `COc1ncc(-c2ccc3nnn(Cc4ccc5ncccc5c4)c3n2)cn1` [Ex 183, 6-((5-(2-Methoxypyrimidin-5-yl)-3H-[1,2,3]triazolo[4,5-b]pyridin-3-yl)methyl)quinoline] gave a melting point of 201 to 203 °C. Further, the inhibition at 0.1 µM with MKN-45 cells is below 25%.

As for `c1cnc2ccc(Cn3nnc4ccc(-c5ccc6c(c5)OCO6)nc43)cc2c1` [Ex 184, 6-((5-(Benzo[d][1,3]dioxol-5-yl)-3H-[1,2,3]triazolo[4,5-b]pyridin-3-yl)methyl)quinoline], the melting point was 179 to 181 °C. In the data set with MKN-45 cells, this molecule displayed an inhibition at 0.1 µM below 25% and an inhibition at 1 µM below 25%.

Turning to `c1cnc2ccc(Cn3nnc4ccc(-c5ccc6c(c5)CCO6)nc43)cc2c1` [Ex 185, 6-((5-(2,3-Dihydrobenzofuran-5-yl)-3H-[1,2,3]triazolo[4,5-b]pyridin-3-yl)methyl) quinoline], the melting point lay within 131 to 133 °C. In the data set on MKN-45 cells, this molecule gave an inhibition at 0.1 µM below 25% and an inhibition at 1 µM below 25%.

On to `Nc1ccc(-c2ccc3nnn(Cc4ccc5ncccc5c4)c3n2)cn1` [Ex 186, 5-(3-(Quinolin-6-ylmethyl)-3H-[1,2,3]triazolo[4,5-b]pyridin-5-yl)pyridin-2-amine], for which the melting point fell in the range of 194 to 197 °C. In the data set on MKN-45 cells, this molecule yielded an inhibition at 0.1 µM below 25% and an inhibition at 1 µM below 25%.

The molecule `FCCn1cc(-c2ccc3nnn(Cc4ccc5ncccc5c4)c3n2)cn1` [Ex 187, 6-((5-(1-(2-fluoroethyl)-1H-pyrazol-4-yl)-3H-[1,2,3]triazolo[4,5-b]pyridin-3-yl)methyl)quinoline] came in with a melting point of 168 to 170 °C. In the data set on MKN-45 cells, this molecule had a GI50 of at most 50 nM and an inhibition at 0.1 µM of 75 to 100%.

As usually defined, the melting point is the temperature, or range, at which the solid turns liquid. As usually defined, the inhibition is the change of the read-out against control, counted positive when it falls. What is called GI50 is the concentration giving 50% growth inhibition.
